Holding throughout (format): cell-based, Human papilloma virus
One experiment relates to HPV16. Nature of the experiment: Inhibition of viral replication in cells that maintain HPV16 DNA, viral DNA quantified by real-time PCR. The source says: (§1) Table 1a lists a number of exemplary polyamides synthesized in accordance with the present invention. The HPLC/MW values given in Table 1b were obtained using low resolution high pressure liquid chromatography/mass spectrometry (LR HPLC/MS), which provides moderate precision masses of single isotopomers rather than average molecular weights or exact masses. Table 2 presents a summary of measured IC50 values of certain of these polyamides against HPV16, HPV18 and HPV31. The IC50 is the concentration of compound required for 50% inhibition of viral replication in vitro. The polyamides were tested in cells that maintain HPV16, HPV18 or HPV31 DNA. Cells maintaining the selected HPV were cultured for 72 hours in the presence of the polyamide. Viral DNA was then quantified using real-time PCR and compared to vehicle (DMSO)-treated control cultures. […] Table 3 presents a summary of measured IC50 and IC90 values of certain of these polyamides against HPV16, HPV18 and HPV31.

The subject of a further experiment is HPV18. Nature of the experiment: Inhibition of viral replication in cells that maintain HPV18 DNA, viral DNA quantified by real-time PCR.
Text: as §1

A further experiment has as its system HPV31. The experiment in a line: Inhibition of viral replication in cells that maintain HPV31 DNA, viral DNA quantified by real-time PCR.
Text: as §1
A general note: In qPCR the cycle at which signal appears reflects the starting amount.

The mark [1] stands for this setting: cells maintaining HPV16 cultured 72 hours with polyamide, vs DMSO control, highest dose tested 10 μM.
[2] abbreviates: cells maintaining HPV18 cultured 72 hours with polyamide, vs DMSO control, highest dose tested 10 μM.
[3] abbreviates: cells maintaining HPV31 cultured 72 hours with polyamide, vs DMSO control, highest dose tested 10 μM.

A word on the IC50: it is the concentration that inhibits the measured activity by half. Higher therefore signals weaker potency in that assay. A word on the IC90: it is the concentration needed for an effect of 90%. Turning to `CN(CCCN)CCCNC(=O)CCNC(=O)c1cc(NC(=O)CCNC(=O)c2cc(NC(=O)c3cc(NC(=O)c4cc(NC(=O)CCNC(=O)c5cc(NC(=O)c6cc(NC(=O)c7cc(NC(=O)CCCNC(=O)c8cc(NC(=O)CCNC(=O)c9cc(NC(=O)c%10cc(NC(=O)CCNC(=O)c%11cc(NC(=O)c%12cc(NC(=O)c%13cc(N=C(N(C)C)N(C)C)cn%13C)cn%12C)cn%11C)cn%10C)cn9C)cn8C)cn7C)cn6C)cn5C)cn4C)cn3C)cn2C)cn1C` [NV1098, TMG-PyPyPyβPyPyβPy-γ-PyPyPyβPyPyPyβPyβ-Ta•3TFA], the IC50 came out at 11 nM in the experiment on HPV16 (Table 3, 72 hours); 11 nM with HPV16 (setting [1]); 17 nM with HPV18 (Table 3, 72 hours); 17 nM with HPV18 (setting [2]); 24 nM in the experiment on HPV31 (Table 3, 72 hours); 24 nM in the experiment on HPV31 (setting [3]). Further, the IC90 with HPV16 (Table 3, 72 hours) is 1360 nM; in the experiment with HPV18 (Table 3, 72 hours) it was above 10000 nM; in the experiment on HPV31 (Table 3, 72 hours) it was 549 nM.

In the case of `CN(CCCN)CCCNC(=O)CCNC(=O)c1cc(NC(=O)c2cc(NC(=O)c3cc(NC(=O)CCNC(=O)c4cc(NC(=O)c5cc(NC(=O)c6cc(NC(=O)CCNC(=O)c7cc(NC(=O)c8cc(NC(=O)CCCNC(=O)c9cc(NC(=O)c%10cc(NC(=O)CCNC(=O)c%11nc(NC(=O)c%12cc(NC(=O)c%13cc(NC(=O)CCNC(=O)c%14cc(N=C(N(C)C)N(C)C)cn%14C)cn%13C)cn%12C)cn%11C)cn%10C)cn9C)cn8C)cn7C)cn6C)cn5C)cn4C)cn3C)cn2C)cn1C` [NV1078, TMG-PyβPyPyImβPyPy-γ-PyPyβPyPyPyβPyPyPyβ-Ta•4TFA], the IC50 was determined as 32 nM in the experiment on HPV16 (setting [1]), 27 nM with HPV18 (setting [2]) and 35 nM in the experiment with HPV31 (setting [3]).

Take `CN(CCCN)CCCNC(=O)CCNC(=O)c1cc(NC(=O)CCNC(=O)c2cc(NC(=O)c3cc(NC(=O)c4cc(NC(=O)CCNC(=O)c5cc(NC(=O)c6cc(NC(=O)CCNC(=O)c7cc(NC(=O)[C@H](N)CCNC(=O)c8nc(NC(=O)c9cc(NC(=O)CCNC(=O)c%10cc(NC(=O)c%11cc(NC(=O)CCNC(=O)c%12cc(NC(=O)c%13cc(NC(=O)c%14cc(N=C(N(C)C)N(C)C)cn%14C)cn%13C)cn%12C)cn%11C)cn%10C)cn9C)cn8C)cn7C)cn6C)cn5C)cn4C)cn3C)cn2C)cn1C` [NV1073, TMG-PyPyPyβPyPyβPyIm-γNH2-PyβPyPyβPyPyPyβPyβ-Ta•5TFA]: the figures for the IC50 in the experiment on HPV16 (setting [1]), in the experiment with HPV18 (setting [2]) and with HPV31 (setting [3]) were 267 nM, 405 nM and 220 nM, respectively.

As for `CN(C)CCCNC(=O)CCNC(=O)c1cc(NC(=O)CCNC(=O)c2cc(NC(=O)c3cc(NC(=O)c4cc(NC(=O)CCNC(=O)c5cc(NC(=O)c6cc(NC(=O)CCNC(=O)c7cc(NC(=O)CCCNC(=O)c8nc(NC(=O)c9cc(NC(=O)CCNC(=O)c%10cc(NC(=O)c%11cc(NC(=O)CCNC(=O)c%12cc(NC(=O)c%13cc(NC(=O)c%14cc(N=C(N(C)C)N(C)C)cn%14C)cn%13C)cn%12C)cn%11C)cn%10C)cn9C)cn8C)cn7C)cn6C)cn5C)cn4C)cn3C)cn2C)cn1C` [NV1088, TMG-PyPyPyβPyPyβPyIm-γ-PyβPyPyβPyPyPyβPyβ-Dp•3TFA], the IC50 with HPV16 (setting [1]) is 20 nM; with HPV18 (setting [2]) it was 35 nM; in the experiment on HPV31 (setting [3]), 14 nM.

With `CN(C)CCCNC(=O)CCNC(=O)c1cc(NC(=O)CCNC(=O)c2cc(NC(=O)c3cc(NC(=O)c4cc(NC(=O)CCNC(=O)c5cc(NC(=O)c6cc(NC(=O)c7cc(NC(=O)[C@H](N)CCNC(=O)c8cc(NC(=O)CCNC(=O)c9cc(NC(=O)c%10cc(NC(=O)CCNC(=O)c%11cc(NC(=O)c%12cc(NC(=O)c%13cc(N=C(N(C)C)N(C)C)cn%13C)cn%12C)cn%11C)cn%10C)cn9C)cn8C)cn7C)cn6C)cn5C)cn4C)cn3C)cn2C)cn1C` [NV1077, TMG-PyPyPyβPyPyβPy-γNH2-PyPyPyβPyPyPyβPyβ-Dp], the IC50 in the experiment with HPV16 (setting [1]) stood at 95 nM; with HPV18 (setting [2]), 15 nM; in the experiment on HPV31 (setting [3]), 32 nM.

As for `CN(C)CCCNC(=O)CCNC(=O)c1cc(NC(=O)c2cc(NC(=O)c3cc(NC(=O)CCNC(=O)c4cc(NC(=O)c5cc(NC(=O)c6cc(NC(=O)CCNC(=O)c7cc(NC(=O)c8cc(NC(=O)CCCNC(=O)c9cc(NC(=O)c%10cc(NC(=O)CCNC(=O)c%11nc(NC(=O)c%12cc(NC(=O)c%13cc(NC(=O)CCNC(=O)c%14cc(N=C(N(C)C)N(C)C)cn%14C)cn%13C)cn%12C)cn%11C)cn%10C)cn9C)cn8C)cn7C)cn6C)cn5C)cn4C)cn3C)cn2C)cn1C` [NV1080, TMG-PyβPyPyImβPyPy-γ-PyPyβPyPyPyβPyPyPyβ-Dp•3TFA], the IC50 in the experiment with HPV16 (setting [1]) was 53 nM; in the experiment on HPV18 (setting [2]), 35 nM; with HPV31 (setting [3]), 47 nM.

Consider `CN(C)CCCNC(=O)CCNC(=O)c1cc(NC(=O)CCNC(=O)c2cc(NC(=O)c3cc(NC(=O)c4cc(NC(=O)CCNC(=O)c5cc(NC(=O)c6cc(NC(=O)CCNC(=O)c7cc(NC(=O)CCCNC(=O)c8nc(NC(=O)c9cc(NC(=O)CCNC(=O)c%10cc(NC(=O)c%11cc(NC(=O)CCNC(=O)c%12cc(NC(=O)c%13cc(N=C(N(C)C)N(C)C)cn%13C)cn%12C)cn%11C)cn%10C)cn9C)cn8C)cn7C)cn6C)cn5C)cn4C)cn3C)cn2C)cn1C` [NV1089, TMG-PyPyβPyPyβPyIm-γ-PyβPyPyβPyPyPyβPyβ-Dp•3TFA], for which the values for the 50% inhibitory concentration (IC50) in the experiment on HPV16 (setting [1]), in the experiment on HPV18 (setting [2]) and in the experiment on HPV31 (setting [3]) were 68 nM, 68 nM and 46 nM, respectively.

Consider `CN(CCCN)CCCNC(=O)CCNC(=O)c1cc(NC(=O)c2cc(NC(=O)c3cc(NC(=O)c4cc(NC(=O)CCNC(=O)c5cc(NC(=O)c6cc(NC(=O)CCCNC(=O)c7cc(NC(=O)c8cc(NC(=O)c9cc(NC(=O)CCNC(=O)c%10cc(N=C(N(C)C)N(C)C)cn%10C)cn9C)cn8C)cn7C)cn6C)cn5C)cn4C)cn3C)cn2C)cn1C` [NV1082, TMG-PyβPyPyPy-γ-PyPyβPyPyPyPyβ-Ta•3TFA], for which the IC50 in the experiment on HPV16 (setting [1]), with HPV18 (setting [2]) and in the experiment on HPV31 (setting [3]) was above 10000 nM in each case.

Take `CN(CCCN)CCCNC(=O)CCNC(=O)c1cc(NC(=O)c2cc(NC(=O)c3cc(NC(=O)CCNC(=O)c4cc(NC(=O)c5cc(NC(=O)c6cc(NC(=O)CCCNC(=O)c7cc(NC(=O)c8cc(NC(=O)CCNC(=O)c9nc(NC(=O)c%10cc(N=C(N(C)C)N(C)C)cn%10C)cn9C)cn8C)cn7C)cn6C)cn5C)cn4C)cn3C)cn2C)cn1C` [NV1094, TMG-PyImβPyPy-γ-PyPyPyβPyPyPyβ-Ta•4TFA]: the IC50 with HPV16 (setting [1]), in the experiment with HPV18 (setting [2]) and in the experiment on HPV31 (setting [3]) was above 10000 nM throughout.

Regarding `CN(C)CCCNC(=O)CCNC(=O)c1cc(NC(=O)CCNC(=O)c2cc(NC(=O)c3cc(NC(=O)c4cc(NC(=O)CCNC(=O)c5cc(NC(=O)c6cc(NC(=O)c7cc(NC(=O)[C@@H](CCNC(=O)c8cc(NC(=O)CCNC(=O)c9cc(NC(=O)c%10cc(NC(=O)CCNC(=O)c%11cc(NC(=O)c%12cc(NC(=O)c%13cc(N=C(N(C)C)N(C)C)cn%13C)cn%12C)cn%11C)cn%10C)cn9C)cn8C)NC(=O)NCCCN(C)C)cn7C)cn6C)cn5C)cn4C)cn3C)cn2C)cn1C` [NV1079, TMG-PyPyPyβPyPyβPy-γNHR″-PyPyPyβPyPyPyβPyβ-Dp•3TFA], the IC50 is 42 nM in the experiment on HPV16 (setting [1]), 17 nM in the experiment with HPV18 (setting [2]) and 37 nM in the experiment with HPV31 (setting [3]).

As for `CN(CCCN)CCCNC(=O)CCNC(=O)c1cc(NC(=O)CCNC(=O)c2cc(NC(=O)c3cc(NC(=O)c4cc(NC(=O)CCNC(=O)c5cc(NC(=O)c6cc(NC(=O)c7cc(NC(=O)[C@H](N)CCNC(=O)c8cc(NC(=O)CCNC(=O)c9cc(NC(=O)c%10cc(NC(=O)CCNC(=O)c%11cc(NC(=O)c%12cc(NC(=O)c%13cc(N=C(N(C)C)N(C)C)cn%13C)cn%12C)cn%11C)cn%10C)cn9C)cn8C)cn7C)cn6C)cn5C)cn4C)cn3C)cn2C)cn1C` [NV1076, TMG-PyPyPyβPyPyβPy-γNH2-PyPyPyβPyPyPyβPyβ-Ta], the IC50 came to 67 nM with HPV16 (setting [1]), 48 nM with HPV18 (setting [2]) and 104 nM with HPV31 (setting [3]).

In the case of `CN(C)CCCNC(=O)CCNC(=O)c1cc(NC(=O)CCNC(=O)c2cc(NC(=O)c3cc(NC(=O)c4cc(NC(=O)CCNC(=O)c5cc(NC(=O)c6cc(NC(=O)CCNC(=O)c7cc(NC(=O)[C@H](N)CCNC(=O)c8nc(NC(=O)c9cc(NC(=O)CCNC(=O)c%10cc(NC(=O)c%11cc(NC(=O)CCNC(=O)c%12cc(NC(=O)c%13cc(NC(=O)c%14cc(N=C(N(C)C)N(C)C)cn%14C)cn%13C)cn%12C)cn%11C)cn%10C)cn9C)cn8C)cn7C)cn6C)cn5C)cn4C)cn3C)cn2C)cn1C` [NV1075, TMG-PyPyPyβPyPyβPyIm-γNH2-PyβPyPyβPyPyPyβPyβ-Dp•4TFA], the IC50 worked out at 124 nM with HPV16 (setting [1]), 49 nM in the experiment on HPV18 (setting [2]) and 56 nM in the experiment on HPV31 (setting [3]).

For `CN(C)CCCNC(=O)CCNC(=O)c1cc(NC(=O)c2cc(NC(=O)c3cc(NC(=O)CCNC(=O)c4cc(NC(=O)c5cc(NC(=O)c6cc(NC(=O)CCNC(=O)c7cc(NC(=O)c8cc(NC(=O)CCCNC(=O)c9cc(NC(=O)c%10cc(NC(=O)CCNC(=O)c%11nc(NC(=O)c%12cc(NC(=O)c%13cc(NC(=O)CCNC(=O)c%14cc(NC(=O)c%15cc(N=C(N(C)C)N(C)C)cn%15C)cn%14C)cn%13C)cn%12C)cn%11C)cn%10C)cn9C)cn8C)cn7C)cn6C)cn5C)cn4C)cn3C)cn2C)cn1C` [NV1086, TMG-PyPyβPyPyImβPyPy-γ-PyPyβPyPyPyβPyPyPyβ-Dp•3TFA], the IC50 amounted to 43 nM in the experiment with HPV16 (setting [1]), 62 nM in the experiment on HPV18 (setting [2]) and 16 nM with HPV31 (setting [3]).

The record behind these values is US9133228B2, “Guanidinyl-substituted polyamides useful for treating human papilloma virus” (Nanovir, LLC, priority 2011, dated 2015).
